Laboratory results taken from patent US20100249043A1, “COMPOSITIONS AND METHODS FOR PROMOTING HAIR GROWTH” (LA CANADA VENTRURES, INC., priority 2009, published 2010).

Test system: scalp hair
Assay: scalp hair conditioner / scalp serum applied to dry scalp, monthly follow up with photographs
Assay type: in vivo
Conditions: applied to dry scalp after cleansing
Excerpt: The subjects were asked to apply the scalp serum with various concentrations of prostaglandin (dechloroethylcloprostenolamide from 0 wt % to 0.03 wt %), and a placebo is applied on the separate portion of the scalp. […] All the agents are applied directly to dry scalp after cleansing. Follow up are done monthly and photographs are taken.

dechloroethylcloprostenolamide [prostaglandin]
time to response on scalp: 3 month
